Source: US8859612B2, “Use of hesperidin or one of its derivatives for making a medicine for bone formation stimulation” (Institut National de la Recherche Agronomique (INRA), priority 2002, dated 2014)

Tests used:
[1] = test system: hPOB-tert cells; test: Accumulation of calcium in hPOB-tert cells (Example 2); assay type: cell-based, human; conditions: hesperetin 50 μM, 21 days of incubation, vs control cells (0.1% DMSO)
Experimental: (§1) We have tested three concentrations of hesperetin in the hPOB culture medium seeded to confluence: 1, 10 and 50 μM. Furthermore, these media lacked osteoblast differentiation factors (Vitamin D3 and dexamethasone). The control contained 0.1% DMSO (hesperetin being dissolved in the DMSO). The cells were incubated in these media for 35 days. The alkaline phosphatase activity, a marker of osteoblast differentiation, was measured on a cell lysate by using a commercial kit (Sigma No 247). The cells had been harvested at 0, 4, 8 and 12 days of incubation. The calcium content of the cells, the mineralisation marker, was quantified on a cell lysate after 21 days of incubation in the different media, with the aid of a commercial kit (Sigma No587).

[2] = test system: hPOB-tert cells; test: Alkaline phosphatase activity in hPOB-tert cells (Example 2); assay type: cell-based, human
Experimental: as §1

[3] = Circulating levels of hesperetin (Example 1); assay type: in vivo, Wistar rats; conditions: OVX and SH rats receiving diet supplemented with hesperidin 0.5%, 3 months
Excerpt: (§2) In order to study the possible impact of this molecule on bone tissue, 40 female 3 months old Wistar rats (266±2 g) were used. These animals were accustomed to a basic semi-synthetic diet for the 7 days preceding the start of the period of experimentation. At D0, 20 rats were sham-operated, the other 20 were oophorectomised. Distributed in groups of 10, they were fed on various diets for 3 months, at the end of which they were sacrificed. The last week before being killed, from D85 to D90, the rats were inspected and the urine was collected (over a period of 24 hours). Similarly, the body composition of the rats was measured. After being killed the plasma and the femurs were collected for different analyses [Femurs: resistance to rupture, densitometry; Plasma: osteocalcinemia (marker for osteoblast activity), hesperetin level: Urines: desoxypyridinoline (marker for bone resorption)]. Throughout the entire duration of the experimentation, the rats were weighed once a week. The daily quantity of food distributed to each animal was 20 g.
(§3) 10 Hp SH et 10 Hp OVX: sham-operated and oophorectomised rats receiving a standard control diet supplemented with hesperidin (0.5%) for 3 months

[4] = test system: oophorectomised rat (OVX) and sham-operated control rats (SH); test: Femoral biomechanics (Example 1); assay type: in vivo, Wistar rats
Excerpt: as §2
(§4) 10 T SH and 10 T OVX: sham-operated and oophorectomised rats receiving a standard control diet for 3 months
as §3

[5] = test system: oophorectomised rat (OVX) and sham-operated control rats (SH); test: Femoral densitometry (Example 1); assay type: in vivo, Wistar rats; conditions: for Total femoral density (T-BMD): hesperidin 0.5% in diet, 3 months
Excerpt: as §2, §4, §3
The densities are expressed in g/cm^2.

[6] = test system: oophorectomised rat (OVX) and sham-operated control rats (SH); test: Urinary excretion of desoxypyridinoline, marker for bone resorption (Example 1); assay type: in vivo, Wistar rats
Excerpt: as §2, §4, §3

[7] = test system: six months' old oophorectomised rat; test: Uterine weight, six months' old rats (Example 3); assay type: in vivo, Wistar rats
Experimental: (§5) The experiments were performed on 48 six months' old female Wistar rats: 24 oophorectomised (OVX) and 24 sham-operated (SH).
(§6) After the surgical operation on D0, the animals were given seven days to accustom themselves to their surroundings. At the end of this period of adaptation, the rodents were distributed on the basis of weight parameters in 4 homogeneous groups and received daily for 72 days 22 g of the following diets: • group SH: 12 sham-operated rats fed with the control diet • group OVX: 12 oophorectomised rats which received the control diet • group SH Hp: 12 sham-operated rats fed with the hesperidin diet • group OVX Hp: 12 oophorectomised rats which received the hesperidin diet
When sacrificed (D90), the animals were anesthetised by an intra-peritoneal injection of chloral (Fluka: 8% solution; 0.4 ml/100 g live weight). Blood samples were collected from the abdominal aorta. The uterus was weighed.

[8] = test system: six months' old oophorectomised rat; test: Biomechanical properties of the femur, six months' old rats (Example 3); assay type: in vivo, Wistar rats; conditions: hesperidin diet (FIG. 14)
Experimental: as §5, §6
The mechanical properties of the femur of the individuals of the different groups of animals were analysed.

[9] = test system: oophorectomised rat (OVX) and sham-operated control rats (SH); test: Uterine weight (Example 1); assay type: in vivo, Wistar rats; conditions: 3 months; for uterine weight: hesperidin 0.5% in diet
Excerpt: as §2, §4, §3
The uterine weight was evaluated in order to validate the castration.

[10] = test system: oophorectomised rat (OVX) and sham-operated control rats (SH); test: Plasma levels of osteocalcin, marker for osteoblast activity (Example 1); assay type: in vivo, Wistar rats; conditions: Hp SH vs T SH, p<0.05 (FIG. 4)
Excerpt: as §2, §4, §3

[11] = test system: six months' old oophorectomised rat; test: Bone mineral density of the femur, six months' old rats (Example 3); assay type: in vivo, Wistar rats; conditions: six months' old OVX rats, consumption of hesperidin (FIG. 11)
Experimental: as §5, §6
The femurs were extracted and adjacent soft tissues were removed, then the femurs were stored in 80% ethanol for the determination of bone density.

Compound: COc1ccc([C@@H]2CC(=O)c3c(O)cc(O)cc3O2)cc1O [hesperetin, (S)-2,3-dihydro-5,7-dihydroxy-2-(3-hydroxy-4-methoxyphenyl)-4H-1-benzopyran-4-one]
- calcium deposition (calcium content of the cells) [1]: stimulate calcium deposition
- alkaline phosphatase activity (osteoblast differentiation) ([2]; hesperetin 1 μM, vs untreated cells, no vitamin D3 or dexamethasone): lacks effect
- alkaline phosphatase activity (osteoblast differentiation) ([2]; hesperetin 10 μM, from the 4th day onwards, plateau on the 8th day): increase
- alkaline phosphatase activity (osteoblast differentiation) ([2]; hesperetin 50 μM, from the 4th day onwards, plateau on the 8th day): most efficacious

Compound: COc1ccc([C@@H]2CC(=O)c3c(O)cc(O[C@@H]4O[C@H](CO[C@@H]5O[C@@H](C)[C@H](O)[C@@H](O)[C@H]5O)[C@@H](O)[C@H](O)[C@H]4O)cc3O2)cc1O [hesperidin, (S)-7-[[6-0-(6-deoxy-α-L-mannopyranosyl)-β-D-glucopyranosyl]oxy]-2,3-dihydro-5-hydroxy-2-(3-hydroxy-4-methoxyphenyl)-4H-1-benzopyran-4-one]
- mean plasma level of aglycone (hesperetin) [3]: 12.53 ± 2.48 µM
- Femoral resistance to rupture ([4]; Hp SH: sham-operated rats, hesperidin 0.5% in diet, 3 months): 106.3 ± 5.3 N
- femoral resistance to rupture, effect in words ([4]; oophorectomised rats, diet supplemented with hesperidin): tendency to improve
- Total femoral density (T-BMD) ([5]; Hp OVX: oophorectomised rats): 0.2445 g/cm^2
- Total femoral density (T-BMD) ([5]; Hp SH: sham-operated rats): 0.2501 g/cm^2
- diaphyseal femoral density, effect in words ([5]; both OVX and SH rats vs groups on standard diet, p<0.05): significantly improves
- metaphyseal femoral density (M-BMD) ([5]; intact or oophorectomised rats on hesperidin diet vs standard diet (FIG. 2)): increase
- metaphyseal femoral density (M-BMD), mineralisation ([5]; non-castrated animals, by comparison with T SH): improvement of the mineralisation
- total femoral density, effect on demineralisation induced by oophorectomy ([5]; oophorectomised rats, consumption of hesperidin): completely prevents this demineralisation
- total femoral density, effect in words ([5]; sham-operated (SH) rats, consumption of hesperidin): significantly improves
- urinary excretion of DPD ([6]; Hp SH rats in comparison with T SH): significantly diminished
- urinary excretion of desoxypyridinoline: increase of bone resorption induced by oophorectomy ([6]; OVX rats, consumption of hesperidin (FIG. 3)): prevented
- uterine atrophy following ovarian ablation ([7]; OVX rats, consumption of hesperidin (FIG. 10)): not prevented
- uterotrophic effect ([7]; six months' old rats, hesperidin diet (FIG. 10)): lacks a uterotrophic effect
- biomechanical properties of the femur (femoral load at rupture) ([8]; OVX Hp: six months' old oophorectomised rats): preserve them
- biomechanical properties of the femur (femoral load at rupture) ([8]; intact (sham-operated) six months' old rats): improve them
- uterine weight ([9]; Hp OVX: oophorectomised rats, ** p<0.01 vs SH): 238.6 ± 2.23** mg
- uterine weight ([9]; Hp SH: sham-operated rats): 659.4 ± 8.96 mg
- uterotrophic effect ([9]; uterine weight not modified by consumption of hesperidin 0.5% in diet): lack a uterotrophic effect
- plasma levels of osteocalcin (bone accretion) [10]: stimulates bone accretion
- demineralisation of the femur (total bone mineral density) [11]: prevented (at least partially)
